Data as given in US9695133B2, “Quinazolinone-based oncogenic-RAS-selective lethal compounds and their use” (THE TRUSTEES OF COLUMBIA UNIVERSITY IN THE CITY OF NEW YORK, priority 2012, dated 2017).
Where “and” joins values, the source holds several entries; their conditions need not be identical. Identical values can stand only once. Like-named read-outs stand apart in the source and are kept apart here.

Columns and labels:
[1] = Mouse liver microsome metabolic stability test; format: in vitro ADME; conditions: mouse liver microsome assay
[2] = Water solubility by microplate nephelometer; format: physicochemical
Description: The water solubility was determined using a microplate nephelometer (NEPHELOstar, BMG labtech, Cary, N.C.).

[3] = Plasma pharmacokinetics after single IV and PO dose; format: in vivo, male C57BL6/j mice; conditions: for Plasma Concentration, individual mice / concentration at 0.5 hr / concentration at 1 hr / concentration at 2 hr / concentration at 4 hr / concentration at 8 hr / concentration at 12 hr / Vd: 20 mg/kg; for MRT inf: read-out: MRT(0-∞)
Description: Three mice in each group were used for blood collection at each time point. Blood samples (approximately 400 μL) were collected after euthanasia using carbon dioxide inhalation via cardiac puncture pre-dose and 30 minutes, 1 hour, 2 hours, 4 hours, 8 hours and 12 hours post-dose. Blood samples were placed into tubes containing sodium heparin and centrifuged at 8000 rpm for 6 minutes at 4° C. to separate plasma from the blood samples. Following centrifugation, the resulting plasma was transferred to clean tubes and stored frozen at −80° C. until bioanalysis by the Testing Facility.

[4] = Postdose observations in the pharmacokinetic study; format: in vivo, male C57BL6/j mice; conditions: single 20 mg/kg IV or PO
[5] = in vivo; conditions: male, C57BL6/j, mouse, 20 mg/kg
[6] = male, C57BL6/j, mouse, plasma, IV 20 mg/kg
[7] = male, C57BL6/j, mouse, plasma, PO 20 mg/kg
[8] = iv, Brain Concentration, individual mice
[9] = iv, Brain-Plasma Concentration Ratio, Mean
[10] = iv, Brain-Plasma Concentration Ratio, individual mice
[11] = po, Brain Concentration, individual mice
[12] = po, Brain-Plasma Concentration Ratio, Mean
[13] = po, Brain-Plasma Concentration Ratio, individual mice

CC(C)Oc1ccc(CN2CCNCC2)cc1-n1c(CN2CCN(C(=O)COc3ccc(Cl)cc3)CC2)nc2ccccc2c1=O [PE, 2-((4-(2-(4-chlorophenoxy)ethanoyl)piperazin-1-yl)methyl)-3-(2-isopropoxy-5-(piperazin-1-ylmethyl)phenyl)quinazolin-4(3H)-one]
metabolic stability [1]: improved metabolic stability in comparison to erastin | solubility ([2]; water, nephelometry): improved solubility | Plasma Concentration, individual mice ([3]; IV 20 mg/kg, 0.5 hr): 4625.87 ng/mL and 2218.81 ng/mL and 2826.92 ng/mL | Plasma Concentration, individual mice ([3]; IV 20 mg/kg, 1 hr): 1548.38 ng/mL and 657.50 ng/mL and 1509.78 ng/mL | Plasma Concentration, individual mice ([3]; IV 20 mg/kg, 2 hr): 1016.04 ng/mL and 1054.66 ng/mL | Plasma Concentration, individual mice ([3]; IV 20 mg/kg, 4 hr): 200.14 ng/mL and 657.19 ng/mL and 379.24 ng/mL | Plasma Concentration, individual mice ([3]; IV 20 mg/kg, 8 hr): 105.57 ng/mL and 148.67 ng/mL | Plasma Concentration, individual mice ([3]; IV 20 mg/kg, 12 hr): 34.53 ng/mL and 159.78 ng/mL and 96.08 ng/mL | Plasma Concentration, individual mice ([3]; PO 20 mg/kg, 0.5 hr): 365.89 ng/mL and 403.60 ng/mL and 87.63 ng/mL | Plasma Concentration, individual mice ([3]; PO 20 mg/kg, 1 hr): 1635.86 ng/mL and 1288.53 ng/mL | Plasma Concentration, individual mice ([3]; PO 20 mg/kg, 2 hr): 1260.55 ng/mL and 527.50 ng/mL and 1016.24 ng/mL | Plasma Concentration, individual mice ([3]; PO 20 mg/kg, 4 hr): 642.39 ng/mL and 669.76 ng/mL | Plasma Concentration, individual mice ([3]; PO 20 mg/kg, 8 hr): 23.99 ng/mL and 28.91 ng/mL | Plasma Concentration, individual mice ([3]; PO 20 mg/kg, 12 hr): 21.10 ng/mL and 15.06 ng/mL | concentration at 0.5 hr ([3]; male, C57BL6/j, mouse, plasma, iv, IV 20 mg/kg, 0.5 hr): 3220 ng/mL | concentration at 1 hr ([3]; male, C57BL6/j, mouse, plasma, iv, IV 20 mg/kg, 1 hr, read-out: Plasma Concentration, Mean): 1240 ng/mL | concentration at 2 hr ([3]; male, C57BL6/j, mouse, plasma, iv, IV 20 mg/kg, 2 hr, read-out: Plasma Concentration, Mean): 997 ng/mL | concentration at 2 hr ([3]; male, C57BL6/j, mouse, plasma, iv, IV 20 mg/kg, 2 hr, read-out: Plasma Concentration, individual mice): 920 ng/mL | concentration at 4 hr ([3]; male, C57BL6/j, mouse, plasma, iv, IV 20 mg/kg, 4 hr, read-out: Plasma Concentration, Mean): 412 ng/mL | concentration at 8 hr ([3]; male, C57BL6/j, mouse, plasma, iv, IV 20 mg/kg, 8 hr, read-out: Plasma Concentration, Mean): 134 ng/mL | concentration at 8 hr ([3]; male, C57BL6/j, mouse, plasma, iv, IV 20 mg/kg, 8 hr, read-out: Plasma Concentration, individual mice): 147 ng/mL | concentration at 12 hr ([3]; male, C57BL6/j, mouse, plasma, iv, IV 20 mg/kg, 12 hr, read-out: Plasma Concentration, Mean): 96.8 ng/mL | Vd ([3]; male, C57BL6/j, mouse, plasma, iv, plasma, IV 20 mg/kg, read-out: Vz): 9.63 L/kg | Vd ([3]; male, C57BL6/j, mouse, plasma, iv, plasma, IV 20 mg/kg, read-out: volume of distribution at terminal phase): 9.63 L/kg | concentration at 0.5 hr ([3]; male, C57BL6/j, mouse, plasma, po, PO 20 mg/kg, 0.5 hr): 286 ng/mL | concentration at 1 hr ([3]; male, C57BL6/j, mouse, plasma, po, PO 20 mg/kg, 1 hr, read-out: Plasma Concentration, Mean): 1390 ng/mL | concentration at 1 hr ([3]; male, C57BL6/j, mouse, plasma, po, PO 20 mg/kg, 1 hr, read-out: Plasma Concentration, individual mice): 1240 ng/mL | concentration at 2 hr ([3]; male, C57BL6/j, mouse, plasma, po, PO 20 mg/kg, 2 hr, read-out: Plasma Concentration, Mean): 935 ng/mL | concentration at 4 hr ([3]; male, C57BL6/j, mouse, plasma, po, PO 20 mg/kg, 4 hr, read-out: Plasma Concentration, Mean): 696 ng/mL | concentration at 4 hr ([3]; male, C57BL6/j, mouse, plasma, po, PO 20 mg/kg, 4 hr, read-out: Plasma Concentration, individual mice): 777 ng/mL | concentration at 8 hr ([3]; male, C57BL6/j, mouse, plasma, po, PO 20 mg/kg, 8 hr, read-out: Plasma Concentration, Mean): 24 ng/mL | concentration at 8 hr ([3]; male, C57BL6/j, mouse, plasma, po, PO 20 mg/kg, 8 hr, read-out: Plasma Concentration, individual mice): 19.1 ng/mL | concentration at 12 hr ([3]; male, C57BL6/j, mouse, plasma, po, PO 20 mg/kg, 12 hr, read-out: Plasma Concentration, Mean): 18.8 ng/mL | concentration at 12 hr ([3]; male, C57BL6/j, mouse, plasma, po, PO 20 mg/kg, 12 hr, read-out: Plasma Concentration, individual mice): 20.2 ng/mL | bioavailability ([3]; male, C57BL6/j, mouse, plasma, PO 20 mg/kg vs IV 20 mg/kg, read-out: F (bioavailability)): 57.1% | AUC(0-inf) [3, 6]: 8490 ng·h/mL | AUC(0-t) [3, 6]: 8100 ng·h/mL | Cmax [3, 6]: 3220 ng/mL | Tmax [3, 6]: 0.5 h | half-life [3, 6]: 2.84 h | MRT inf [3, 6]: 2.67 h | clearance ([3]; male, C57BL6/j, mouse, plasma, IV 20 mg/kg, read-out: systemic clearance (converted)): 39.2 mL/min/kg | AUC(0-inf) [3, 7]: 4850 ng·h/mL | AUC(0-t) [3, 7]: 4810 ng·h/mL | Cmax [3, 7]: 1390 ng/mL | Tmax [3, 7]: 1 h | half-life [3, 7]: 1.57 h | MRT inf [3, 7]: 2.91 h | CLz ([3]; plasma, IV 20 mg/kg): 39.2413 mL/min/kg | postdose observations [4]: No abnormal observations were noted | MRT inf ([5]; iv): 9.91 h | Tmax ([5]; iv): 0.5 h | half-life ([5]; iv): 6.41 h | concentration at 0.5 h ([5]; iv, Brain Concentration, Mean): 96.1 ng/g | concentration at 1 h ([5]; iv, Brain Concentration, Mean): 85.5 ng/g | concentration at 2 h ([5]; iv, Brain Concentration, Mean): 73.7 ng/g | concentration at 4 h ([5]; iv, Brain Concentration, Mean): 48 ng/g | concentration at 8 h ([5]; iv, Brain Concentration, Mean): 30 ng/g | concentration at 12 h ([5]; iv, Brain Concentration, Mean): 29.8 ng/g | concentration at 0.5 h [5, 8]: 116 ng/g | concentration at 1 h [5, 8]: 76.6 ng/g | concentration at 2 h [5, 8]: 79.1 ng/g | concentration at 4 h [5, 8]: 34.1 ng/g | Kp at 0.5 hr [5, 9]: 0.03 | Kp at 1 h [5, 9]: 0.08 | Kp at 2 h [5, 9]: 0.07 | Kp at 4 h [5, 9]: 0.13 | Kp at 8 h [5, 9]: 0.23 | Kp at 12 h [5, 9]: 0.44 | Kp at 0.5 hr [5, 10]: 0.03 | Kp at 2 h [5, 10]: 0.09 | Kp at 4 h [5, 10]: 0.17 | Tmax ([5]; po): 4 h | concentration at 1 h ([5]; po, Brain Concentration, Mean): 14.9 ng/g | concentration at 2 h ([5]; po, Brain Concentration, Mean): 12.3 ng/g | concentration at 4 h ([5]; po, Brain Concentration, Mean): 15.6 ng/g | concentration at 1 h [5, 11]: 10.9 ng/g | concentration at 2 h [5, 11]: 15.1 ng/g | concentration at 4 h [5, 11]: 14.2 ng/g | Kp at 1 h [5, 12]: 0.01 | Kp at 2 h [5, 12]: 0.01 | Kp at 4 hr [5, 12]: 0.02 | Kp at 1 h [5, 13]: 0.01 | Kp at 2 h [5, 13]: 0.01 | Kp at 4 hr [5, 13]: 0.02

CCOc1ccccc1-n1c(C(C)N2CCN(C(=O)COc3ccc(Cl)cc3)CC2)nc2ccccc2c1=O (stereo not drawn) [erastin]
metabolic stability [1]: metabolic instability | solubility [2]: poor solubility
